In ChEMBL document CHEMBL3045784, “Effects of oleic acid on the tissue factor activity, blood lipids, antioxidant and oxidant parameters of streptozotocin induced diabetic rats fed a high-cholesterol diet” (Med Chem Res, 2010):

Columns and labels:
Rattus norvegicus [1] = experiment: Anticoagulant activity in Rattus norvegicus Wistar (rat) diabetic-hyperlipidemic model assessed as decrease in TFa activity in heart measuring clotting time at 10.91% administered through feeding measured after 12 weeks (reference value: 27.13 +/- 3.72 secs); assay type: functional
Rattus norvegicus [2] = experiment: Anticoagulant activity in Rattus norvegicus Wistar (rat) diabetic-hyperlipidemic model assessed as activated partial thromboplastin time at 10.91% administered through feeding measured after 12 weeks (reference value: 17.13 +/- 1.73 secs); assay type: functional
Rattus norvegicus [3] = experiment: Anticoagulant activity in Rattus norvegicus Wistar (rat) diabetic-hyperlipidemic model assessed as decrease in TFa activity in kidney measuring clotting time at 10.91% administered through feeding measured after 12 weeks (reference value: 52.38 +/- 2 secs); assay type: functional
Rattus norvegicus [4] = experiment: Anticoagulant activity in Rattus norvegicus Wistar (rat) diabetic-hyperlipidemic model assessed as decrease in TFa activity in lung measuring clotting time at 10.91% administered through feeding measured after 12 weeks (reference value: 19.25 +/- 3.20 secs); assay type: functional
Rattus norvegicus [5] = experiment: Antihyperlipidemic activity in Rattus norvegicus Wistar (rat) diabetic-hyperlipidemic model assessed as serum HDL-cholesterol level at 10.91% administered through feeding measured after 12 weeks ( Rvb = 22.80 +/- 2.41 mg/dl); assay type: functional
Rattus norvegicus [6] = experiment: Anticoagulant activity in Rattus norvegicus Wistar (rat) diabetic-hyperlipidemic model assessed as decrease in TFa activity in pancreas measuring clotting time at 10.91% administered through feeding measured after 12 weeks (reference value: 27.25 +/- 2.82 secs); assay type: functional
Rattus norvegicus [7] = experiment: Antidiabetic activity in Rattus norvegicus Wistar (rat) diabetic-hyperlipidemic model assessed as serum glucose level at 10.91% administered through feeding measured after 12 weeks ( Rvb = 194.4 +/- 23.99 mg/dl); assay type: functional
Rattus norvegicus [8] = experiment: Anticoagulant activity in Rattus norvegicus Wistar (rat) diabetic-hyperlipidemic model assessed as fibrinogen level at 10.91% administered through feeding measured after 12 weeks (reference value: 2.13 +/- 0.23 g/l); assay type: functional
Rattus norvegicus [9] = experiment: Antioxidant activity in Rattus norvegicus Wistar (rat) diabetic-hyperlipidemic model assessed as serum malondialdehyde level at 10.91% administered through feeding measured after 12 weeks by TBARS assay (reference value: 5.78 +/- 0.08 nmol/ml); assay type: functional
Rattus norvegicus [10] = experiment: Anticoagulant activity in Rattus norvegicus Wistar (rat) diabetic-hyperlipidemic model assessed as decrease in TFa activity in brain measuring clotting time at 10.91% administered through feeding measured after 12 weeks (reference value: 50.5 +/- 1.77 secs); assay type: functional
Rattus norvegicus [11] = experiment: Toxicity in Rattus norvegicus Wistar (rat) diabetic-hyperlipidemic model assessed as change in body weight at 10.91% administered through feeding measured for 12 weeks ( Rvb = 290 +/-76 g); assay type: organism-based; conditions: in vivo, po, 2016 h
Rattus norvegicus [12] = experiment: Anticoagulant activity in Rattus norvegicus Wistar (rat) diabetic-hyperlipidemic model assessed as prothombin time at 10.91% administered through feeding measured after 12 weeks (reference value: 14.69 +/- 0.8 secs); assay type: functional
Rattus norvegicus [13] = experiment: Antihyperlipidemic activity in Rattus norvegicus Wistar (rat) diabetic-hyperlipidemic model assessed as serum LDL-cholesterol level at 10.91% administered through feeding measured after 12 weeks ( Rvb = 74.25 +/- 9.36 mg/dl); assay type: functional
Rattus norvegicus [14] = experiment: Increase in blood GSH level in Rattus norvegicus Wistar (rat) diabetic-hyperlipidemic model at 10.91% administered through feeding measured after 12 weeks (reference value: 20.31 +/- 0.93 %mg); assay type: functional
Rattus norvegicus [15] = experiment: Antihyperlipidemic activity in Rattus norvegicus Wistar (rat) diabetic-hyperlipidemic model assessed as serum total lipid level at 10.91% administered through feeding measured after 12 weeks ( Rvb = 922.25 +/- 41.78 mg/dl); assay type: functional
Rattus norvegicus [16] = experiment: Anticoagulant activity in Rattus norvegicus Wistar (rat) diabetic-hyperlipidemic model assessed as decrease in TFa activity in spleen measuring clotting time at 10.91% administered through feeding measured after 12 weeks (reference value: 69.63 +/- 1.77 secs); assay type: functional
Rattus norvegicus [17] = experiment: Antihyperlipidemic activity in Rattus norvegicus Wistar (rat) diabetic-hyperlipidemic model assessed as serum total cholesterol level at 10.91% administered through feeding measured after 12 weeks ( Rvb = 309 +/- 35.88 mg/dl); assay type: functional
Rattus norvegicus [18] = experiment: Anticoagulant activity in Rattus norvegicus Wistar (rat) diabetic-hyperlipidemic model assessed as decrease in TFa activity in liver measuring clotting time at 10.91% administered through feeding measured after 12 weeks (reference value: 74.38 +/- 4.60 secs); assay type: functional
Rattus norvegicus [19] = experiment: Antihyperlipidemic activity in Rattus norvegicus Wistar (rat) diabetic-hyperlipidemic model assessed as serum triglyceride level at 10.91% administered through feeding measured after 12 weeks ( Rvb = 86.45 +/- 5.7 mg/dl); assay type: functional
Rattus norvegicus [20] = experiment: Anticoagulant activity in Rattus norvegicus Wistar (rat) diabetic-hyperlipidemic model assessed as decrease in TFa activity in aorta measuring clotting time at 10.91% administered through feeding measured after 12 weeks (reference value: 36.25 +/- 1.39 secs); assay type: functional

CCCCCCCC/C=C\CCCCCCCC(=O)O [OLEIC ACID] was tested, and the Time (Rattus norvegicus [1]) was 28.25 s, the APTT (Rattus norvegicus [2]) was 17.88 s and the Time (Rattus norvegicus [3]) was 65.13 s. For the same compound, the Time (Rattus norvegicus [4]) was 20.38 s, the Activity (Rattus norvegicus [5]) was 25.53 mg/dL and the Time (Rattus norvegicus [6]) was 28.5 s. The Activity (Rattus norvegicus [7]) was 190.63 mg/dL, the Activity (Rattus norvegicus [8]) was 1.97 g/L and the Activity (Rattus norvegicus [9]) was 5.81 nmol/mL. For the same compound, the Time (Rattus norvegicus [10]) was 60.13 s, the Activity (Rattus norvegicus [11]) was 243 g and the PT (Rattus norvegicus [12]) was 15.1 s. For the same compound, the Activity (Rattus norvegicus [13]) was 74.63 mg/dL, the Activity (Rattus norvegicus [14]) was 29.96 %mg and the Activity (Rattus norvegicus [15]) was 773.75 mg/dL. It also gave a Time (Rattus norvegicus [16]) of 62.25 s, an Activity (Rattus norvegicus [17]) of 351.3 mg/dL and a Time (Rattus norvegicus [18]) of 77.25 s. For the same compound, the Activity (Rattus norvegicus [19]) was 71.68 mg/dL and the Time (Rattus norvegicus [20]) was 33.5 s.
